These results are taken from patent publication US20260234159A1, “SMALL MOLECULE TREATMENT OF FATTY LIVER DISEASE AND HCC” (SCANDIEDGE THERAPEUTICS AB, priority 2023, published 2026).

pIC50: −log10 of the molar value. Like-named read-outs stand apart in the source and are kept apart here.

Type in all cases: cell-based, human
In data set [1] the test system is HepG2 cells. The data set is described as follows: Triglyceride (TAG) measurement assay, one week steatosis model. Conditions: for activity at 10 µM: Homo sapiens. A digest of the protocol:
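HepG2 cells steatosis-induced for one week in high-glucose DMEM/10% FBS with 10 μg/ml insulin and 10 μM T0901317, media changed at days 0, 3 and 5, with 10 μM test compound throughout. Triglyceride measured colorimetrically (OD 570 nm); viability by MTT.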

A short description of data set [2]: MTT cell viability / IC50 in growth media. Particulars: human, HepG2 cells, 10 μM; for viability at 2 days, 10 µM: treatment for 2 days; for viability at 4 day, 10 µM: day 4.
In data set [3] the test system is HepG2 cells. As to the kind of experiment: MTT cell viability / IC50 in growth media. Particulars: for pIC50: Homo sapiens, 48 h, HepG2, treatment for 2 days; for cell viability of HepG2 cells: especially in cancerous media.
For another data set, the system named is JNK1/2/3. The data set is described as follows: Western blot, JNK1/2/3 P54 and p46 isoforms. Conditions: 10 μM, 2 days. On the procedure: HepG2 cells were seeded into a 6-well plate at 400,000 cells per well. After treatment with 10 μM of JNK-IN-5A and its derivatives for two days, lysates were harvested with CelLytic M (C2978, Sigma-Aldrich). […] SDS PAGE were performed using Mini-PROTEAN® TGX™ Precast Gels (Bio-Rad) and transferred using Trans-Blot® Turbo™ Transfer System (Bio-Rad). […] ImageQuantTMLAS 500 (29-0050-63, GE) was used to detect protein bands.
Background: Immunoblotting shows a protein as a band on a membrane.

In data set [4] the test system is HepG2 cells. The data set is described as follows: FACs analysis with PI staining (cell cycle). Particulars: for Cell population G0/G1 / Cell population G2/M / Cell population S: PI FACs, 10 μM, 2 days; for cells in the G2/M phase: histogram plots. The protocol: 400,000 HepG2 cells were seeded in a 6-well plated and treated with 10 μM of the compounds for 2 days. Cells were fixed with 70% ethanol and stained with 50 μg/ml PI. Prepared cells were analysed using BD FACS Canto II Flow Cytometry system at PE-A channel 10,000 cells per group. The data was histogram plotted with BD FACSDiva 9.0.

In data set [5] the test system is HepG2 cells. The data set is described as follows: Invasion assay (transwell). Particulars: Homo sapiens, HepG2, 24 hr, read-out: invasiveness reduced by. Put shortly: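 HepG2 cells (100,000) in serum-free medium with compounds placed on collagen-coated 8 μm transwell membranes, with 10% FBS medium below as attractant. After one day at 37 °C, cells fixed in formaldehyde and stained with crystal violet. Invaded cells on the outer membrane imaged and counted.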

Setting [6] is: 168 h, HepG2, 10 μM, one week steatosis induce media, Control 100.00, read-out: TAG (%).
The mark [7] stands for this setting: HepG2, 168 h, ratio between TAG content and cell viability, Control 100.0, read-out: TAG/cell viability.

As for `N#Cc1c(NC(=O)c2cccc3ccccc23)sc2c1CCCC2` [JNK-IN-5A, N-(3-cyano-4,5,6,7-tetrahydrobenzo[b]thiophen-2-yl)-1-naphthamide], in the data set on HepG2 cells [1] (setting [6]), the activity at 10 µM worked out at 33%. For the same molecule, in the data set on HepG2 cells [1] (setting [7]), the activity at 10 µM amounted to 58.4%. Further, in data set [2], the viability (as a rule, the share of living cells, or the viability signal relative to a control) at 2 days, 10 µM was 59.7%. For the same molecule, in the data set with HepG2 cells [3] (30 μM to 30 nM), the “dose dependence of cell viability” value is on record as “non-dose-dependent, linear reduction in cell viability” and the pIC50 – broadly, the negative decadic logarithm of the IC50, by convention in mol/L – is 4.44. Further, the “JNK1/2/3 p46 expression” value with JNK1/2/3 came to 0.88 times. Further, the “cell cycle distribution / arrest” value in the data set on HepG2 cells [4] (PI FACS) was “significant G2/M cell cycle arrest”. In addition, in the data set on HepG2 cells [4], the “Cell population G0/G1” value is 22.7, the “Cell population G2/M” value is 67.3 and the “Cell population S” value is listed as 4.4. Also, in the data set with HepG2 cells [5], the inhibition at 1 µM amounted to 24.9%.

Take `COc1ccc(C(=O)Nc2sc3c(c2C#N)CCCCC3)cc1OC` [PKL-A135, N-(3-cyano-5,6,7,8-tetrahydro-4H-cyclohepta[b]thiophen-2-yl)-3,4-dimethoxy-benzamide]: in the data set with HepG2 cells [1] (setting [6]), the activity at 10 µM was 49.1%. For the same molecule, in the data set with HepG2 cells [1] (setting [7]), the activity at 10 µM was 77.6%. In data set [2], the viability at 4 day, 10 µM amounted to 15.9% and the viability at 2 days, 10 µM is 43.1%. Further, in the data set on HepG2 cells [3] (30 μM to 30 nM), the pIC50 was 4.92. Also, the “cell viability of HepG2 cells” value in the data set on HepG2 cells [3] is recorded as “significantly low cell viability”. For the same molecule, the “JNK1/2/3 p46 expression” value with JNK1/2/3 was found to be 0.77 times. In the data set on HepG2 cells [4], the “Cell population G0/G1” value is given as 5.5, the “Cell population G2/M” value is recorded as 79.9, the “Cell population S” value stood at 2.0 and the “cells in the G2/M phase” value is on record as “around 89%”. Further, in the data set with HepG2 cells [5], the inhibition at 1 µM is 29.5%.

As to `COc1ccccc1NC(=O)N1CCc2c(sc(NC(=O)c3cccc4ccccc34)c2C#N)C1` [PKL-A152], the “ratio between TAG content and cell viability” value with HepG2 cells [1] is “low ratio between TAG content and cell viability”. Further, the activity at 10 µM in the data set on HepG2 cells [1] (setting [6]) is 10.8%; in the data set with HepG2 cells [1] (setting [7]), 24.5%. Moreover, in the data set with HepG2 cells [1] (ratio as printed in text with %), the TAG/cell viability came out at 24.5%.

As for `N#Cc1c(NC(=O)c2cccc3ccccc23)sc2c1CCN(C(=O)Nc1ccccc1OC(F)(F)F)C2` [PKL-A159], in the data set on HepG2 cells [1] (setting [6]), the activity at 10 µM was 4.54%. Besides, the viability at 2 days, 10 µM in data set [2] is 61.6%. The molecule further showed a pIC50 with HepG2 cells [3] (30 μM to 30 nM) of 5.01. Further, the “JNK1/2/3 p46 expression” value with JNK1/2/3 is “not significantly altered”. Further, in the data set on HepG2 cells [4], the “Cell population G0/G1” value stood at 30.5, the “Cell population G2/M” value came out at 62.4 and the “Cell population S” value amounted to 3.3. Moreover, in the data set with HepG2 cells [5], the inhibition at 1 µM came to 77.8%.

In the case of `N#Cc1c(NC(=O)c2cccc3ccccc23)sc2c1CCN(CC(=O)Nc1cccc(Br)c1)C2` [PKL-B171], the activity at 10 µM in the data set with HepG2 cells [1] (setting [6]) amounted to 21.1%. Besides, the activity at 10 µM with HepG2 cells [1] (setting [7]) was 95.7%. In data set [2], this molecule gave a viability at 4 day, 10 µM of 1.1% and a viability at 2 days, 10 µM of 67.4%. Further, the pIC50 with HepG2 cells [3] (30 μM to 30 nM) is 4.66. Also, in the data set with HepG2 cells [3], the “cell viability of HepG2 cells” value is given as “particularly low cell viability”. In addition, the “JNK1/2/3 p46 expression” value with JNK1/2/3 was found to be 0.87 times. Besides, in the data set on HepG2 cells [4], the “Cell population G0/G1” value stood at 6.6, the “Cell population G2/M” value was found to be 79.1, the “Cell population S” value amounted to 3.6 and the “cells in the G2/M phase” value is “around 89%”. Also, the inhibition at 1 µM in the data set with HepG2 cells [5] turned out to be 21.4%.
